Measurements from patent publication US6323001A, “Increasing the trehalose content of organisms by transforming them with combinations of the structural genes for trehalose synthase” (BTG International Ltd., priority 1994, dated 2001).

Target: T1, Tre6P synthase activity of truncated trehalose synthase (Saccharomyces cerevisiae, UniProt Q00764)
T1 construct: contained the 57 kDa short chain; made in house; host or cells: baker's yeast (native enzyme, proteolytically truncated during purification)
T1 sequence (Q00764 1-495): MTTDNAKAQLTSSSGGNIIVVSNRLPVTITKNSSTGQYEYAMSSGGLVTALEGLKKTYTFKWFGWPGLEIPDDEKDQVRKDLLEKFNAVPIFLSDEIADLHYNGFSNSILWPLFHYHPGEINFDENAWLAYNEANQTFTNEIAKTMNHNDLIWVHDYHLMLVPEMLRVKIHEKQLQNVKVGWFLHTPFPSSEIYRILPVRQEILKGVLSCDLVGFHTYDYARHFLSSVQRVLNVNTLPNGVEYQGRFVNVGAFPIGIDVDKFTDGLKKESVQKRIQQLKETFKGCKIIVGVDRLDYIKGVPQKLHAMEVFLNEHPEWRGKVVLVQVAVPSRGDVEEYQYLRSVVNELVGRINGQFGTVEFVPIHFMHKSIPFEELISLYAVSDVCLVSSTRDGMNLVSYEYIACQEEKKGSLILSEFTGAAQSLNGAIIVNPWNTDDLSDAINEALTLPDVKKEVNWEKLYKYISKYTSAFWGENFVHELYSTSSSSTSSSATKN
Test: Tre6P synthase assay of truncated trehalose synthase
Assay type: biochemical, baker's yeast
Conditions: 10 mM G6P, 5 mM UDPG, 5 mM F6P, without phosphate = 100%
Protocol: With microbial materials, Tre6Pase and Tre6P synthase standard assays and other kinetic measurements were made as described by Londesborough & Vuorio [(1991) loc. cit.] except that the standard Tre6P synthase assay mixture contained 5 mM F6P unless stated otherwise.
Truncated trehalose synthase containing the short (57 kDa) chain and the 86 and 93 kDa long chain fragments was prepared according to the method of Londesborough & Vuorio (1991) loc. cit.] for proteolytically activated TPS/P complex. Tre6P synthase and Tre6Pase activities were assayed as described by Londesborough & Vuorio [(1991) loc. cit.]. [N-ethyl-1-^14C]-maleimide (ethyl-labelled NEM; 40 mCi/mmol) was NEC-454 from New England Nuclear. N-ethyl-[2,3-^14 C]-maleimide (ring-labelled NEM; 6 mCi/mmol) was CFA 293 from Amersham International. Both were obtained as solutions in n-pentane and the manufacturer's stated specific activities were assumed to be correct. Unlabelled N-ethyl-maleimide (NEM) was E-3876 from Sigma. It was dissolved in 25 mM HEPES pH 7.0 immediately before use and standardized by absorption measurements at 305 nm, assuming an E^mM of 0.62.
Truncated trehalose synthase was prepared as described by Londesborough & Vuorio [(1991) loc. cit.] and contained the 57 kDa short chain and 86 and 93 kDa fragments of the long chain. Intact trehalose synthase was prepared as in Example 1. Kinetic assays were done at 30° C. as described in General Methods and Materials.

Structure (SMILES): O=P(O)(O)O [phosphate, K phosphate]
- Tre6P synthase activity, Truncated Enzyme (1.3 mM added K phosphate pH 6.8): 94%
- Tre6P synthase activity, Truncated Enzyme (4.0 mM added K phosphate pH 6.8): 83%
